# Tested on: hepatitis B core antigen (HBcAg)
# Test: Liver HBcAg assay in HBV transgenic mice
# Format: in vivo
# Conditions: 2.3 mg/(kg d)
# Protocol: Experimental design. DCP was administered per os, once daily for 14 days to randomly assigned HBV transgenic mice at 23, 7.3, and 2.3 mg/(kg d). ADV was used as a positive control at 10 mg/(kg d) using the same treatment schedule and vehicle (0.4% CMC). On day 14, mice were euthanized to collect serum and liver samples to perform liver HBV DNA, liver core and serum HBe assays, serum cytokine/chemokine profiles, and IDO metabolite assays.
# Liver HBcAg assay. Liver biopsies were processed for detection of hepatitis B core antigen (HBcAg) (Motley J D, Motter N E, Taro B, Lay M & Fairman J. Efficacy of cationic lipid-DNA complexes (CLDC) on hepatitis B virus in transgenic mice. Antiviral Res 2008; 79:71-79). Three different parameters were obtained from each tissue section. […] The first two parameters were obtained by counting cells surrounding central veins as follows: the total number of cells, the number of cells with stained nuclei, and the number of cells with stained cytoplasms. The identities of the samples were blinded to person counting. The stained nuclei counts or the stained cytoplasm counts were divided by the total cells. Three central vein areas were counted for each slide sample. For the third parameter, a field not in a central vein area was counted for the total number of stained nuclei. One-quarter of the field was counted. Three such fields were counted per liver section. The identity of the samples was blinded to the person reading the slides.
structure (smiles),measurement,setting,value
"Nc1nc([O-])c2nccnc2n1.Nc1nc([O-])c2nccnc2n1.[Ca+2] [DCP, dipterinyl calcium pentahydrate]","HBcAg Stained nuclei/total, Female levels (mean ± SEM)",female,0.36 ± 0.046
same,"HBcAg Stained nuclei/total, Male levels (mean ± SEM)",male,0.51 ± 0.041

# — US20120251495A1, “PTERIN BASED THERAPIES FOR INFLAMMATORY CONDITIONS” (priority 2008, published 2012)
